Reference: paper PMC9019904, “AD Informer Set: Chemical tools to facilitate Alzheimer's disease drug discovery” (Alzheimer's & Dementia : Translational Research & Clinical …, 2022)
Values after ≈ are worked out from the molar mass of the structure shown.

How the values were obtained:
cellular system = settings: published cellular activity at 10 μM; cited from earlier work
[1] = Kinetic solubility in aqueous buffer pH 7.4 by total chemiluminescent nitrogen determination (Analiza); settings: aqueous buffer, pH 7.4, aqueous buffer, kinetic from dmso stock
[2] = test system: HMC3 (human microglia) cell line; test: pHrodo-myelin phagocytosis/cell viability high content imaging assay: phagocytosis signal; assay type: cell-based; settings: HMC3 cells, 10 μM
Method in brief: (§1)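 High content imaging, roughly 22 hours post pHrodo-myelin addition, recorded phagocytosis signal alongside viability in microglial lines BV2 (mouse) and HMC3 (human). Apoptosis tracked through intensity rise (early) and fall (later) among three extracted measurements.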

[3] = test system: BV2 (mouse microglia) cell line; test: as above; assay type: cell-based; settings: BV2 cells, 10 μM
Method in brief: as §1

[4] = test system: BV2 (mouse microglia) cell line; test: pHrodo-myelin phagocytosis/cell viability high content imaging assay: viability (cell count, nuclear area, nuclear intensity); settings: BV2 cells, 10 μM, cell count <70% control
Method in brief: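 Viability was read as total cell count per well by high-content imaging, with mean average nuclear intensity per cell profiling apoptosis (rise early, fall late). Compounds were given at 10 μM for 48 h, pHrodo-myelin being added for the final 20 h. Values are means of two points as % untreated control.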

SMILES | solubility kinetic [1] | Reported as cell active (<10 μM) (cellular system) | Inhibition of human microglial phagocytosis at 10 μM (<70% control) [2] | Stimulation of mouse microglial phagocytosis at 10 μM (>150% control) [3] | Mouse microglial cytotoxicity at 10 μM (<70% control) [4] | Inhibition of mouse microglial phagocytosis at 10 μM (<70% control) [3]
CCc1ccc(CCOc2ccc(CC3SC(=O)NC3=O)cc2)nc1 (stereo not shown) [Pioglitazone] | 3.2 µM (≈ 1.14 µg/mL) | Y (Published data supports that the compound is active in a cellular system when dosed at 10 μM (Y/N)) |  |  |  | 
C=CC[N+]1([C@H]2C[C@H]3[C@@H]4CC[C@H]5C[C@H](O)[C@@H](N6CCOCC6)C[C@]5(C)[C@H]4CC[C@]3(C)[C@H]2OC(C)=O)CCCC1 [Rocuronium Bromide] |  | Y (Published data supports that the compound is active in a cellular system when dosed at 10 μM (Y/N)) | Y (The compound was found to inhibit phagocytosis (response threshold: <70% control) when human immortalized microglial cells were dosed at 10 μM (Y: yes)) |  |  | 
Cc1cc(C)nc(NC(=S)N2CCN(c3ccc(C(F)(F)F)cn3)CC2)c1 [NCT-502] | 2.6 µM (≈ 1.03 µg/mL) | Y (Published data supports that the compound is active in a cellular system when dosed at 10 μM (Y/N)) |  | Y (The compound was found to stimulate phagocytosis (response threshold: >150% control) when murine immortalized microglial cells were dosed at 10 μM (Y: yes)) |  | 
Cc1cc(C)nc(NC(=S)N2CCN(Cc3ccc(C(F)(F)F)cc3)CC2)c1 [NCT-503] | 34.3 µM (≈ 14 µg/mL) | Y (Published data supports that the compound is active in a cellular system when dosed at 10 μM (Y/N)) |  | Y (The compound was found to stimulate phagocytosis (response threshold: >150% control) when murine immortalized microglial cells were dosed at 10 μM (Y: yes)) |  | 
Cc1c(COc2cc(OCc3cccc(C#N)c3)c(CN3C[C@H](O)C[C@@H]3C(=O)O)cc2Cl)cccc1-c1ccc2c(c1)OCCO2 [BMS-1166] | 2.1 µM (≈ 1.35 µg/mL) | Y (Published data supports that the compound is active in a cellular system when dosed at 10 μM (Y/N)) |  |  |  | 
CC(=O)O[C@@H]1[C@@H](OC(C)=O)[C@@H](O)[C@H](Oc2c(-c3ccc(O)cc3)oc3cc(O)cc(O)c3c2=O)O[C@H]1C [SL0101] |  | Y (Published data supports that the compound is active in a cellular system when dosed at 10 μM (Y/N)) | Y (The compound was found to inhibit phagocytosis (response threshold: <70% control) when human immortalized microglial cells were dosed at 10 μM (Y: yes)) |  |  | 
COc1ccc(CCN2CCN(CCCc3ccccc3)CC2)cc1OC.Cl.Cl [Cutamesine (SA 4503)] | 108 µM | Y (Published data supports that the compound is active in a cellular system when dosed at 10 μM (Y/N)) |  |  |  | 
CN1c2ccc([N+](=O)[O-])cc2N=C(c2ccc(C(=O)O)cc2)c2cc3c(cc21)C(C)(C)CCC3(C)C [HX531] | < 0.7 µM | Y (Published data supports that the compound is active in a cellular system when dosed at 10 μM (Y/N)) |  |  | Y (The compound was found to be cytotoxic (cell count threshold: <70% control) when murine immortalized microglial cells were dosed at 10 μM (Y: yes)) | 
O=C1CCc2cc(OCCCCc3nnnn3C3CCCCC3)ccc2N1 [Cilostazol (OPC 13013)] | 58.5 µM (≈ 21.6 µg/mL) | Y (Published data supports that the compound is active in a cellular system when dosed at 10 μM (Y/N)) |  |  |  | 
CCc1ccc(S(=O)(=O)c2ccccc2)cc1S(=O)(=O)NCCCN(C)C [sFRP-1 Inhibitor] | 164 µM (≈ 67.2 µg/mL) | Y (Published data supports that the compound is active in a cellular system when dosed at 10 μM (Y/N)) |  | Y (The compound was found to stimulate phagocytosis (response threshold: >150% control) when murine immortalized microglial cells were dosed at 10 μM (Y: yes)) |  | 
C[C@@H]1O[C@@H](O[C@H]2[C@H](Oc3cc(O)c4c(c3)O[C@H](c3ccc(O)cc3)CC4=O)O[C@H](CO)[C@@H](O)[C@@H]2O)[C@H](O)[C@H](O)[C@H]1O [Naringin] |  | Y (Published data supports that the compound is active in a cellular system when dosed at 10 μM (Y/N)) | Y (The compound was found to inhibit phagocytosis (response threshold: <70% control) when human immortalized microglial cells were dosed at 10 μM (Y: yes)) | Y (The compound was found to stimulate phagocytosis (response threshold: >150% control) when murine immortalized microglial cells were dosed at 10 μM (Y: yes)) |  | 
Nc1ncnc2c1nc(Sc1ccc(Cl)cc1)n2[C@@H]1O[C@@H]2COP(=O)([O-])O[C@H]2[C@H]1O.[Na+] [pCPT-cAMP] | 135 µM | Y (Published data supports that the compound is active in a cellular system when dosed at 10 μM (Y/N)) |  |  |  | 
CCCCCCCCCCCCCCCCOCC(COCC(F)(F)F)OP(=O)([O-])OC.[Li+] (stereo not shown) [MJ-33 (lithium salt)] |  | Y (Published data supports that the compound is active in a cellular system when dosed at 10 μM (Y/N)) | Y (The compound was found to inhibit phagocytosis (response threshold: <70% control) when human immortalized microglial cells were dosed at 10 μM (Y: yes)) |  |  | 
Oc1c(F)cc(-c2cnccc2-c2ccc(N3CCOCC3)cc2)cc1F [LJI308] | 3.7 µM (≈ 1.36 µg/mL) | Y (Published data supports that the compound is active in a cellular system when dosed at 10 μM (Y/N)) |  | Y (The compound was found to stimulate phagocytosis (response threshold: >150% control) when murine immortalized microglial cells were dosed at 10 μM (Y: yes)) |  | 
Cl.N=C(CCl)NCCC[C@H](NC(=O)c1ccccc1)C(N)=O [Cl-amidine] |  | Y (Published data supports that the compound is active in a cellular system when dosed at 10 μM (Y/N)) | Y (The compound was found to inhibit phagocytosis (response threshold: <70% control) when human immortalized microglial cells were dosed at 10 μM (Y: yes)) |  |  | 
C[C@H](CCCC(C)(C)O)[C@H]1CC[C@H]2[C@@H]3CC=C4C[C@@H](O)CC[C@]4(C)[C@H]3CC[C@]12C [25-Hydroxycholesterol] |  | Y (Published data supports that the compound is active in a cellular system when dosed at 10 μM (Y/N)) | Y (The compound was found to inhibit phagocytosis (response threshold: <70% control) when human immortalized microglial cells were dosed at 10 μM (Y: yes)) |  |  | Y (The compound was found to inhibit phagocytosis (response threshold: <70% control) when murine immortalized microglial cells were dosed at 10 μM (Y: yes))

Second part, led by results:

solubility kinetic [1] | SMILES | Reported as cell active (<10 μM) (cellular system) | Inhibition of human microglial phagocytosis at 10 μM (<70% control) [2] | Stimulation of mouse microglial phagocytosis at 10 μM (>150% control) [3] | Mouse microglial cytotoxicity at 10 μM (<70% control) [4] | Inhibition of mouse microglial phagocytosis at 10 μM (<70% control) [3]
148 µM (≈ 61.5 µg/mL) | N[C@@H](CC(=O)Nc1ccc(Oc2cc(F)c(F)cc2Br)cc1)C(=O)O [WAY 213613] | Y (Published data supports that the compound is active in a cellular system when dosed at 10 μM (Y/N)) |  | Y (The compound was found to stimulate phagocytosis (response threshold: >150% control) when murine immortalized microglial cells were dosed at 10 μM (Y: yes)) | Y (The compound was found to be cytotoxic (cell count threshold: <70% control) when murine immortalized microglial cells were dosed at 10 μM (Y: yes)) | 
3.7 µM (≈ 1.49 µg/mL) | CCOC(=O)c1cccc(CNc2ccc(N(C)C(=O)Nc3ccccc3)cc2)c1 [GN6958 (Compound 8)] | Y (Published data supports that the compound is active in a cellular system when dosed at 10 μM (Y/N)) |  | Y (The compound was found to stimulate phagocytosis (response threshold: >150% control) when murine immortalized microglial cells were dosed at 10 μM (Y: yes)) |  | 
186 µM (≈ 42.8 µg/mL) | CC(=O)c1nc([C@@H](O)[C@H](O)[C@H](O)CO)c[nH]1 [THI] | Y (Published data supports that the compound is active in a cellular system when dosed at 10 μM (Y/N)) |  | Y (The compound was found to stimulate phagocytosis (response threshold: >150% control) when murine immortalized microglial cells were dosed at 10 μM (Y: yes)) |  | 
166 µM | Nc1ncnc2c1nc(Br)n2[C@@H]1O[C@@H]2COP(=O)([O-])O[C@H]2[C@H]1O.[Na+] [8-Bromo-cAMP (sodium salt)] | Y (Published data supports that the compound is active in a cellular system when dosed at 10 μM (Y/N)) |  | Y (The compound was found to stimulate phagocytosis (response threshold: >150% control) when murine immortalized microglial cells were dosed at 10 μM (Y: yes)) |  | 
7.1 µM (≈ 3.51 µg/mL) | Cc1cc(C)nc(NS(=O)(=O)c2ccc(NC(=O)NC(=O)c3ccc(Cl)cc3Cl)cc2)n1 [LDN-193188] | Y (Published data supports that the compound is active in a cellular system when dosed at 10 μM (Y/N)) |  |  |  | 
57 µM (≈ 20.4 µg/mL) | CN(CCOc1ccc(CC2SC(=O)NC2=O)cc1)c1ccccn1 (stereo not shown) [Rosiglitazone] | Y (Published data supports that the compound is active in a cellular system when dosed at 10 μM (Y/N)) |  |  |  | 
92.8 µM (≈ 33.7 µg/mL) | Cc1cc2c(cc1C1(c3ccc(C(=O)O)cn3)CC1)C(C)(C)CCC2(C)C [LG 100268] | Y (Published data supports that the compound is active in a cellular system when dosed at 10 μM (Y/N)) |  |  |  | 
